These results are taken from ChEMBL document CHEMBL3991601, “The target landscape of clinical kinase drugs” (Science, 2017).

SMILES strings stand for the structures. Active and inactive are the calls of the source. Bounds are passed on as bounds.

The target of test [1] is Tyrosine-protein kinase ABL1 (Homo sapiens, UniProt P00519).
Test [2] has as its target T1, Beta-adrenergic receptor kinase 1 (Homo sapiens, UniProt P25098).
T1 sequence (P25098 whole entry): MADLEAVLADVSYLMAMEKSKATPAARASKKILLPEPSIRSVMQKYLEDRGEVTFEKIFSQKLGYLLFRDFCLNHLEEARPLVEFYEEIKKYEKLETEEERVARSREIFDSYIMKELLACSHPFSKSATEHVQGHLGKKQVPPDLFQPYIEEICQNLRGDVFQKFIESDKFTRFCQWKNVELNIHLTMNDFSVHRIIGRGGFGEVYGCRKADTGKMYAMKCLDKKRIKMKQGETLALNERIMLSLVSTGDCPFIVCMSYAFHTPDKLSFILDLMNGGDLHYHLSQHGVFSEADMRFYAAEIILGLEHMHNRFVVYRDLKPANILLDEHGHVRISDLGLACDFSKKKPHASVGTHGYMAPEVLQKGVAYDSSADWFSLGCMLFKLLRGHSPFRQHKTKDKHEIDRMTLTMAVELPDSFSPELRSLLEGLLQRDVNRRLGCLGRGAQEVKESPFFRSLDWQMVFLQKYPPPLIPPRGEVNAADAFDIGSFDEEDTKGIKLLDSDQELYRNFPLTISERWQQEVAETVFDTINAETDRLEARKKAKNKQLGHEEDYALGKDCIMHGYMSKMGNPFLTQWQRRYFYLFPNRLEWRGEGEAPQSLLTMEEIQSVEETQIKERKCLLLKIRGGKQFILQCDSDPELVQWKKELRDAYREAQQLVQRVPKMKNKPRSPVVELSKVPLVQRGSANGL

The target of test [3] is Serine/threonine-protein kinase MRCK gamma (Homo sapiens, UniProt Q6DT37).
Sequence of Serine/threonine-protein kinase MRCK gamma (Q6DT37 whole entry): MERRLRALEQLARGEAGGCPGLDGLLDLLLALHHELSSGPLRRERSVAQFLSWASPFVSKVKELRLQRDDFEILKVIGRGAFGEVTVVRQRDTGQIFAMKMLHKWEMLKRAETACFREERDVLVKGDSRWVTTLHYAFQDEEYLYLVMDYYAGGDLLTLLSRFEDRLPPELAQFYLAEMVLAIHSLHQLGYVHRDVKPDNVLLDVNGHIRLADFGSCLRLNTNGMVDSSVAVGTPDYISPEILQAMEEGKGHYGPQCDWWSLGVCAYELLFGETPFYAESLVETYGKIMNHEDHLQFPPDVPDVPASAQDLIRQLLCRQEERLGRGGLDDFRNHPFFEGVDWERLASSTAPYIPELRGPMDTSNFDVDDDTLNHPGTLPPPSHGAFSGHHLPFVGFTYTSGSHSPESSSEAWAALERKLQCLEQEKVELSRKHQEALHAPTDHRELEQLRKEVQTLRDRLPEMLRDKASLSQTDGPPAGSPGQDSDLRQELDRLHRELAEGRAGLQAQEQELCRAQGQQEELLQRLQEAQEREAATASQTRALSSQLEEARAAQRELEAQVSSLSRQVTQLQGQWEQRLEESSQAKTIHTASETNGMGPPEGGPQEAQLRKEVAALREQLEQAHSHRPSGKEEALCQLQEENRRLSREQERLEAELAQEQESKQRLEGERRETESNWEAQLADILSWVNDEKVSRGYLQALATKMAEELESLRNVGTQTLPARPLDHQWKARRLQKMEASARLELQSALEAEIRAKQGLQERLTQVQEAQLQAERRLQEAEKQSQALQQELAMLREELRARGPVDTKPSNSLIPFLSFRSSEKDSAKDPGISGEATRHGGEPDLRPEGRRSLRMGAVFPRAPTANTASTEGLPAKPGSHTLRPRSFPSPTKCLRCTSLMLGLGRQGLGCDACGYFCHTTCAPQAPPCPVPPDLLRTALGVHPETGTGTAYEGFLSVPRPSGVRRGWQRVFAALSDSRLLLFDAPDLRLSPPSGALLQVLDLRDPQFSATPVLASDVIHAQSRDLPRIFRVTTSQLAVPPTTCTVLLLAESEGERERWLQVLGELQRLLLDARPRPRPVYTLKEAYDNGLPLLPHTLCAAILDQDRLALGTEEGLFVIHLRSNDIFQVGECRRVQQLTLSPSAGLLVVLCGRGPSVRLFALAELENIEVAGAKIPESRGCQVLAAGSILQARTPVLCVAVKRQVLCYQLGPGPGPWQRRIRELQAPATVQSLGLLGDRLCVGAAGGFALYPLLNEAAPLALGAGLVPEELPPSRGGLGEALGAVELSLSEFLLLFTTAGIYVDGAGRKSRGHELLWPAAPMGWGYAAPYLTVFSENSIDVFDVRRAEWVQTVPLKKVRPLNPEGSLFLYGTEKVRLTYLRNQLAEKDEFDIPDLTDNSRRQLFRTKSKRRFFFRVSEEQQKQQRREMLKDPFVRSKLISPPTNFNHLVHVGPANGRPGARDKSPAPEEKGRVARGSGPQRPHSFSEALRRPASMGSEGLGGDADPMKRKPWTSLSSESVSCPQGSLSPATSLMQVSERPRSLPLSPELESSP
Test [4] has as its target T2, Heme oxygenase 2 (Homo sapiens, UniProt P30519).
T2 sequence (P30519 whole entry): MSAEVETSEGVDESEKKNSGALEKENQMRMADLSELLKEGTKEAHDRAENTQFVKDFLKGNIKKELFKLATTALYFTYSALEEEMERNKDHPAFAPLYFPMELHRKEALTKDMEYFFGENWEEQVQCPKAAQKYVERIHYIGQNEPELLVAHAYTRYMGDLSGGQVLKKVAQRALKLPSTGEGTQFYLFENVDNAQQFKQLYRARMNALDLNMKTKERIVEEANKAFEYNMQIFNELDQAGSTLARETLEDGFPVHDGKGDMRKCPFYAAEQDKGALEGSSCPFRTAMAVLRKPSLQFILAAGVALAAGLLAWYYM

The target in test [5] is MAP/microtubule affinity-regulating kinase 3 (Homo sapiens, UniProt P27448).
Sequence of MAP/microtubule affinity-regulating kinase 3 (P27448 whole entry): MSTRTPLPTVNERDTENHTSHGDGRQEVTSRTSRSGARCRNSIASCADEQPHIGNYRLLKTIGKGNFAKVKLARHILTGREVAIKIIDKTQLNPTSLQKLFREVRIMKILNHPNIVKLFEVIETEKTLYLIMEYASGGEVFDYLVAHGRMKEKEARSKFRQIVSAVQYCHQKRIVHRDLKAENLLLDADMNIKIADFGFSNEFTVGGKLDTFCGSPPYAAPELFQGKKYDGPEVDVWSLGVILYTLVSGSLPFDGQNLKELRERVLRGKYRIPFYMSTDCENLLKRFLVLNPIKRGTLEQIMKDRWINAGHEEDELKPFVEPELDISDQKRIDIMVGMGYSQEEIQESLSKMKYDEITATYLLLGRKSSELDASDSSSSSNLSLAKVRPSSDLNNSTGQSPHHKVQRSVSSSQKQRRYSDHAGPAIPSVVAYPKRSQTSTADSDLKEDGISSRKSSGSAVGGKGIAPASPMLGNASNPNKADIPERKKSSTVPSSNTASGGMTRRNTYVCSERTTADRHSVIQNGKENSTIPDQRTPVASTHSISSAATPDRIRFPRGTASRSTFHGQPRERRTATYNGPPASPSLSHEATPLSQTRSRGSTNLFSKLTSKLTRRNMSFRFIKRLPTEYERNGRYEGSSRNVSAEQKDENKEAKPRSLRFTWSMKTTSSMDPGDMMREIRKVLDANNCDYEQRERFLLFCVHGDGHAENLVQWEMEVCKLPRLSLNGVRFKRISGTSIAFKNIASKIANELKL
The target in test [6] is T3, Serine/threonine-protein kinase D3 (Homo sapiens, UniProt O94806).
T3 sequence (O94806 whole entry): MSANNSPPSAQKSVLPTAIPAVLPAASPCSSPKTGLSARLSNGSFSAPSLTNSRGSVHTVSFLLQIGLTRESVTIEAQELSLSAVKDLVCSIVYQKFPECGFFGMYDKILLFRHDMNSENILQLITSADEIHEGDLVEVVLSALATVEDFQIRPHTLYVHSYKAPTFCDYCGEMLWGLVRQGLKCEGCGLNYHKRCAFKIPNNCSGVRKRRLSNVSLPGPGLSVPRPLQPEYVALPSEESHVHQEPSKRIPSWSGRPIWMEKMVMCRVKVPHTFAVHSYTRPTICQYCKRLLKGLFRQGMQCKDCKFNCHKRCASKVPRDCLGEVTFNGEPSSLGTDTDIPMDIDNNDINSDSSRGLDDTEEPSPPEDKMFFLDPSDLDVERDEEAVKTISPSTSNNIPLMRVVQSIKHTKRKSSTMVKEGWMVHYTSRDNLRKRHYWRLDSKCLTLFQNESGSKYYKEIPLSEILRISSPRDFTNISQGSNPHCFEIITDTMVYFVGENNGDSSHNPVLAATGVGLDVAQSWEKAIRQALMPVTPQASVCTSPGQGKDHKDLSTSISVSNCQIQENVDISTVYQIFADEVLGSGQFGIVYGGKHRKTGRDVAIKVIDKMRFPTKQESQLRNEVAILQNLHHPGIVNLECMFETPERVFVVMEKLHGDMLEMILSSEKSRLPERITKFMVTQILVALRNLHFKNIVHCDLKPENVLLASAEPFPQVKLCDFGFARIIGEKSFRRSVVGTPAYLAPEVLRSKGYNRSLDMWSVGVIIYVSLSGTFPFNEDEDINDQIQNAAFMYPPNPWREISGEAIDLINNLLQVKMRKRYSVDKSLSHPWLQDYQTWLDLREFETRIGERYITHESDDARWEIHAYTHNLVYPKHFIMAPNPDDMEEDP

For test [7], the target named is Ribosomal protein S6 kinase alpha-1 (Homo sapiens, UniProt Q15418).
Sequence of Ribosomal protein S6 kinase alpha-1 (Q15418 whole entry): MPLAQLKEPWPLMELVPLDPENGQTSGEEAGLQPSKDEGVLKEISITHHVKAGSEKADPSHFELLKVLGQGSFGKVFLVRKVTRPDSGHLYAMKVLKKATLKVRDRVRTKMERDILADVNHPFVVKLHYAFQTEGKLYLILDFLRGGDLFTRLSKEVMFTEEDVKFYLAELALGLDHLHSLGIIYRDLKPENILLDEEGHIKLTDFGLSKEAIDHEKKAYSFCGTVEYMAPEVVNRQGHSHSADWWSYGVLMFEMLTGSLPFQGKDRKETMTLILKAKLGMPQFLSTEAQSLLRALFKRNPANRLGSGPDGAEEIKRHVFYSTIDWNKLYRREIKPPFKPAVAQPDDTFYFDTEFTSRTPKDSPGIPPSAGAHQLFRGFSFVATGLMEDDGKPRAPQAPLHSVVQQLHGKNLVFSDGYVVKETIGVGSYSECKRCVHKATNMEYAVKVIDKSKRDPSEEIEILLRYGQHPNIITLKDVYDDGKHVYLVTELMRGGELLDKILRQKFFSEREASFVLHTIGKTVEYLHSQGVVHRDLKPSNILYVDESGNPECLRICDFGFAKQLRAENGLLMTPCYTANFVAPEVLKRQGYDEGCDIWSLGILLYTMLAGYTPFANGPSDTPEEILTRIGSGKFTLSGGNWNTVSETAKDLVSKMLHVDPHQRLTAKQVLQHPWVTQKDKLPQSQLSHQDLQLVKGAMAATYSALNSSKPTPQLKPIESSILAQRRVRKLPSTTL
Test [8] has as its target T4, Phosphatidylinositol 5-phosphate 4-kinase type-2 alpha (Homo sapiens, UniProt P48426).
T4 sequence (P48426 whole entry): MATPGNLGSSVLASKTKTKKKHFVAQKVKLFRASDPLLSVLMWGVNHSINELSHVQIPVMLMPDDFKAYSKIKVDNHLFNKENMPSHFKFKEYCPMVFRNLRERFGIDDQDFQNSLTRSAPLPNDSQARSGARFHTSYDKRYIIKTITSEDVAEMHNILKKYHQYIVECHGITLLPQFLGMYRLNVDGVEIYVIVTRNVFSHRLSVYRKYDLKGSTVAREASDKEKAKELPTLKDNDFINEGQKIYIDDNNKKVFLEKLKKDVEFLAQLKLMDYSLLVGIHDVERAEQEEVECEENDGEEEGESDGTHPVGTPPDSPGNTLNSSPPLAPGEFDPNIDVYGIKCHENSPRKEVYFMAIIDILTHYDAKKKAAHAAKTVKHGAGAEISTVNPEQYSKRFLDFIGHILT

For test [9], the target named is Protein kinase C theta type (Homo sapiens, UniProt Q04759).
Sequence of Protein kinase C theta type (Q04759 whole entry): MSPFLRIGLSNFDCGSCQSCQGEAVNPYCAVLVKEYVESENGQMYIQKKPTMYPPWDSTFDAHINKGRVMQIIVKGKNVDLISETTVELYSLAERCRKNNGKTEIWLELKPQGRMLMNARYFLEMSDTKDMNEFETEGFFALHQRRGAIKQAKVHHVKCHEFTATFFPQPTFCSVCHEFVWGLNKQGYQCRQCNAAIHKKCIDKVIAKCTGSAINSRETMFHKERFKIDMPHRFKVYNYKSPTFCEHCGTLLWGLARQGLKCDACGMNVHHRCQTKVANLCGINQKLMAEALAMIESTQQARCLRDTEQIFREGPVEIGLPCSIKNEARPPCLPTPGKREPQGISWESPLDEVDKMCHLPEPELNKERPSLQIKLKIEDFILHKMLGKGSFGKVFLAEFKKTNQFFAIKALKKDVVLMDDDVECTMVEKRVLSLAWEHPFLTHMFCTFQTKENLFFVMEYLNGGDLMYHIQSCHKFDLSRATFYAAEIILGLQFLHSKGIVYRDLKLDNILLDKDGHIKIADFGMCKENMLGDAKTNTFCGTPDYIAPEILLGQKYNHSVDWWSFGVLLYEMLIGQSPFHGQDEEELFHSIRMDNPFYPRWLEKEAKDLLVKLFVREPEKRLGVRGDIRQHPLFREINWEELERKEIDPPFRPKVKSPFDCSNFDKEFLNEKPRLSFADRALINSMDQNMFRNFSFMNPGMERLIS

The Kd is the free concentration of one partner at which half of the binding sites on the other are occupied at equilibrium, for simple one-to-one binding.
Note: in the data inactive means no Kd found up to 30 µM.

Sequence of Tyrosine-protein kinase ABL1 (P00519 whole entry): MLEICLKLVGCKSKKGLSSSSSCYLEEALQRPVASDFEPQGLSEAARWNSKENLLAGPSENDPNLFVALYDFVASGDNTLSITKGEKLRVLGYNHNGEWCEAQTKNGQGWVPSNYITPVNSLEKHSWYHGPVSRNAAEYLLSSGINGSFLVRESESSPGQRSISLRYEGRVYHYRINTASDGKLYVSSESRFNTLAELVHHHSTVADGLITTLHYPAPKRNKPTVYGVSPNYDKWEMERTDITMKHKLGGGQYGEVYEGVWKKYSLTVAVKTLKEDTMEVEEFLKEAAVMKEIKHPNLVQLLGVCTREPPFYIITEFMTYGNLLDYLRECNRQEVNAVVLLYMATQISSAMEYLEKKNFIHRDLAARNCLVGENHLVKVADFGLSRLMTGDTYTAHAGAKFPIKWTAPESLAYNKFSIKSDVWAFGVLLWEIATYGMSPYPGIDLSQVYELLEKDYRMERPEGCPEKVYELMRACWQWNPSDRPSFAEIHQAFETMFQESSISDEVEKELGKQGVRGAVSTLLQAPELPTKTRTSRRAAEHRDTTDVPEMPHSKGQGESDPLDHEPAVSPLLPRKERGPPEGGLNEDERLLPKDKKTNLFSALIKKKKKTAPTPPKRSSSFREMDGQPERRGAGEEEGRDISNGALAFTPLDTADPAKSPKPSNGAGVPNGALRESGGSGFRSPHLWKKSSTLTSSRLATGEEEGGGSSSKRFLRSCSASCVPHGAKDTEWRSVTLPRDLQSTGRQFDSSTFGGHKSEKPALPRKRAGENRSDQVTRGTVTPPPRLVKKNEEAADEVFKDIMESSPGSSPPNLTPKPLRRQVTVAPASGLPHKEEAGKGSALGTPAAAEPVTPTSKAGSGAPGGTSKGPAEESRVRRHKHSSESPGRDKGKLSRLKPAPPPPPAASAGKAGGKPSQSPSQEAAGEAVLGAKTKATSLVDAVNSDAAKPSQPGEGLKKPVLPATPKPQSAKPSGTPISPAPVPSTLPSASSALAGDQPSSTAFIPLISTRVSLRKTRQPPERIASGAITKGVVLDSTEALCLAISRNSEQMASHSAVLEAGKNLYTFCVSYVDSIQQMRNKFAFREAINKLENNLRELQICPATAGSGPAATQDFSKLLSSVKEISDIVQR

In the case of `C[C@@H](Oc1cc(C(=O)Nc2ccc(C(=O)N3CCN(C)CC3)cc2)nnc1N)c1c(Cl)ccc(F)c1Cl`, the Kd in test [1], in test [2], in test [3], in [4], in [5] and in [6] was > 30 µM (inactive) each time. Further, the Kd in test [7] was > 30 µM (inactive).

Regarding `C[C@H]1CNCCCN1S(=O)(=O)c1cccc2cncc(F)c12`, the Kd in test [1] is > 30 µM (inactive); in test [2] it was > 30 µM (inactive); in test [3], > 30 µM (inactive); in [4] it was > 30 µM (inactive); in test [5] it was 58.2 µM (active); in [6], > 30 µM (inactive). In addition, in test [7], the Kd was > 30 µM (inactive).

Consider `CC(=O)c1cnc2ccc(-c3cc(Cl)c(O)c(Cl)c3)nc2c1N[C@H]1CC[C@H](CN(C)C)CC1`, for which the equilibrium dissociation constant (Kd) in test [1] was 0.28 µM (active); in test [2] it was > 30 µM (inactive); in test [3], 0.063 µM; in test [4] it was > 30 µM (inactive); in test [5], > 30 µM (inactive); in [8], > 30 µM (inactive). Besides, the equilibrium dissociation constant (Kd) was 0.093 µM (active) in test [6] and 0.251 µM (active) in [7].

As to `COc1cc(Nc2ncc3c(n2)-c2ccc(Cl)cc2C(c2c(F)cccc2OC)=NC3)ccc1C(=O)O` [ALISERTIB], the Kd in test [2], in test [3], in test [4], in test [8] and in test [7] was > 30 µM (inactive) throughout.

`O=C(Nc1c[nH]nc1-c1nc2cc(CN3CCOCC3)ccc2[nH]1)NC1CC1` [AT-9283]: the Kd in test [2], in [3], in test [4] and in test [9] was > 30 µM (inactive) each time.

As for `CNC(=O)c1ccccc1Sc1ccc2c(/C=C/c3ccccn3)n[nH]c2c1` [AXITINIB], the Kd in test [2], in test [4] and in test [8] was > 30 µM (inactive) each time.

Take `NC(=O)Nc1cc(-c2cccc(F)c2)sc1C(=O)N[C@H]1CCCNC1` [AZD-7762]: the Kd is 0.61 µM (active) in [1]; > 30 µM (inactive) in test [2]; > 30 µM (inactive) in [3]; > 30 µM (inactive) in [4]; > 30 µM (inactive) in test [8]; > 30 µM (inactive) in test [9]. Further, the results for the Kd in test [6] and in test [7] were 2.14 µM (active) and > 30 µM (inactive), respectively.

With `C#Cc1cccc(Nc2ncnc3cc(OC)c(OCCCCCCC(=O)NO)cc23)c1` [CUDC-101], the Kd in test [2], in test [3], in test [4], in [5], in test [8] and in [9] was > 30 µM (inactive) throughout. The Kd in test [6] and in test [7] was > 30 µM (inactive) throughout.

`CC(C)(C)c1nc(-c2cccc(NS(=O)(=O)c3c(F)cccc3F)c2F)c(-c2ccnc(N)n2)s1` [DABRAFENIB]: the Kd was > 30 µM (inactive) in test [2]; > 30 µM (inactive) in [3]; > 30 µM (inactive) in test [4]; > 30 µM (inactive) in [5]; > 30 µM (inactive) in test [8]; 0.12 µM (active) in [6].

On to `CCn1cc(-c2ccnc3[nH]c(-c4cccc(CN(C)C)c4)cc23)c(-c2ccc(NC(=O)N(C)C)cc2)n1` [GSK-1070916], for which the Kd in [4] is > 30 µM (inactive); in [8], > 30 µM (inactive); in test [9], > 30 µM (inactive); in test [6] it was 1.93 µM (active).

For `Cc1[nH]c(/C=C2\C(=O)Nc3ccccc32)c(C)c1CCC(=O)O` [ORANTINIB], the Kd in test [2], in [3], in test [4] and in [8] was > 30 µM (inactive) in each case.

As to `CCOc1cc2ncc(C#N)c(Nc3ccc(F)c(Cl)c3)c2cc1NC(=O)/C=C/CN(C)C` [PELITINIB], the Kd in test [2], in [3], in test [4], in test [5], in test [8] and in [9] was > 30 µM (inactive) each time. For the same molecule, the Kd in test [6] and in [7] was > 30 µM (inactive) throughout.

With `CC(=O)NCC(=O)N1[C@@H]2CC[C@H]1c1ccc(Nc3ncc(C(F)(F)F)c(NC4CCC4)n3)cc12` [PF-03814735], the Kd in [2] is > 30 µM (inactive); in [3], > 30 µM (inactive); in test [4], > 30 µM (inactive); in test [8], > 30 µM (inactive); in test [7], 2.41 µM (active).

Consider `CNC(=O)c1cc(Oc2ccc(NC(=O)Nc3cc(C(C)(C)C)nn3-c3ccc4ncccc4c3)c(F)c2)ccn1` [REBASTINIB], for which the Kd in [2], in test [3], in test [4], in test [5], in test [8] and in [9] was > 30 µM (inactive) in each case. For the same molecule, the Kd in test [6] and in test [7] was > 30 µM (inactive) each time.

As to `N#CC[C@H](C1CCCC1)n1cc(-c2ncnc3[nH]ccc23)cn1` [RUXOLITINIB], the Kd in test [2], in test [4] and in [8] was > 30 µM (inactive) throughout.

Regarding `CCS(=O)(=O)c1cccc(-c2cc(C(=O)NC3CCN(C)CC3)c(C)c3[nH]c4ncc(C)cc4c23)c1` [TAK-901], the Kd in [1] was 0.31 µM (active); in [2], > 30 µM (inactive); in [3] it was > 30 µM (inactive); in test [4] it was > 30 µM (inactive); in test [8], > 30 µM (inactive); in test [9] it was > 30 µM (inactive). Also, the Kd in test [6] is > 30 µM (inactive).

As to `Cn1ncc(Cl)c1-c1cc(C(=O)N[C@H](CN)Cc2ccc(F)c(F)c2)oc1Cl` [UPROSERTIB], the Kd is > 30 µM (inactive) in [1]; > 30 µM (inactive) in [2]; > 30 µM (inactive) in test [3]; > 30 µM (inactive) in [8]; 2.64 µM (active) in test [6]; > 30 µM (inactive) in test [7].
